Experimental data published in the supplement of paper PMC10307832.

Columns and labels:
Test in all cases: relative viability (nuclei count vs DMSO), 5 days (fraction); higher = more cells survive
RO-3306 + Palbociclib = compound: C1=CC2=C(C=CC(=C2)C=C3C(=O)NC(=NCC4=CC=CS4)S3)N=C1 [RO-3306] + CC(=O)c1c(C)c2cnc(Nc3ccc(N4CCNCC4)cn3)nc2n(C2CCCC2)c1=O [Palbociclib] (partner 0.5 µM)
In short: (§1)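 Relative viability is defined as nuclei in treated wells over nuclei in vehicle wells. Duplicate plates were run and medians reported. Lung cancer cell lines in 1536-well plates were dosed by pin tool one day after seeding, with one drug or with a fixed anchor-drug dose plus five library-drug doses (not always all listed) in √10 steps, and nuclei were counted after 5 days.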

RO-3306 + Linsitinib = compound: C1=CC2=C(C=CC(=C2)C=C3C(=O)NC(=NCC4=CC=CS4)S3)N=C1 [RO-3306] + C[C@]1(O)C[C@@H](c2nc(-c3ccc4ccc(-c5ccccc5)nc4c3)c3c(N)nccn32)C1 [Linsitinib] (partner 1 µM)
In short: as §1

[1] = compound: O=S(=O)(c1ccccc1)N(CC(F)(F)F)c1ccc(C(O)(C(F)(F)F)C(F)(F)F)cc1 + COc1cccc2cc(-c3nc([C@H]4CC[C@H](C(=O)O)CC4)n4ncnc(N)c34)[nH]c12 [OSI-027] (partner 0.5 µM)
In short: as §1

[2] = compound: O=S(=O)(c1ccccc1)N(CC(F)(F)F)c1ccc(C(O)(C(F)(F)F)C(F)(F)F)cc1 + Cc1nc(Nc2ncc(C(=O)Nc3c(C)cccc3Cl)s2)cc(N2CCN(CCO)CC2)n1 [Dasatinib] (partner 0.075 µM)
In short: as §1

UMC-11 was tested, and the relative viability (RO-3306 + Palbociclib; first compound 0.01 µM) was 0.305, the relative viability (RO-3306 + Palbociclib; first compound 0.03162 µM) was 0.319 and the relative viability (RO-3306 + Palbociclib; first compound 0.1 µM) was 0.297. It also gave a relative viability (RO-3306 + Palbociclib; first compound 0.3162 µM) of 0.309, a relative viability (RO-3306 + Palbociclib; first compound 1 µM) of 0.277 and a relative viability (RO-3306 + Linsitinib; first compound 0.01 µM) of 0.998. It also gave a relative viability (RO-3306 + Linsitinib; first compound 0.03162 µM) of 0.783, a relative viability (RO-3306 + Linsitinib; first compound 0.1 µM) of 1.08 and a relative viability (RO-3306 + Linsitinib; first compound 0.3162 µM) of 1.08. For the same cell line, the relative viability (RO-3306 + Linsitinib; first compound 1 µM) was 1.03, the relative viability ([1]; first compound 0.8 µM) was 0.491 and the relative viability ([1]; first compound 2.53 µM) was 0.444. For the same cell line, the relative viability ([1]; first compound 8 µM) was 0.526, the relative viability ([2]; first compound 0.8 µM) was 0.561 and the relative viability ([2]; first compound 2.53 µM) was 0.531. The relative viability ([2]; first compound 8 µM) was 0.54.
